Laboratory results: US20080125427A1, “Novel Inhibitors of Rho-Kinases” (SMITHKLINE BEECHAM CORPORATION, priority 2004, published 2008)

Target: T1, human recombinant ROCK1 kinase domain (amino acid 2-543) (Homo sapiens, UniProt Q13464)
T1 construct: human recombinant ROCK1 kinase domain (amino acid 2-543); His-tag; made in house; host or cells: Sf9 insect cells
Experiment: ROCK Kinase Assay (SPA, P33 incorporation into peptide substrate)
Format: biochemical
Conditions: 1 nM hROCK1, 1 uM ATP; eleven point dilution range, 50 uM to 0.8 nM or 10 uM to 0.8 nM (Example 98: 10 uM to 0.8 nM)
Method: ROCK inhibitor activity was determined using human recombinant ROCK1 kinase domain (amino acid 2-543) expressed in Sf9 cells (see WO9967283). The enzyme was purified using His-tag NTA column and Source15 HPLC chromatography. The assay of Rock-1 activity involved incubation with peptide substrate and ATP^33, the subsequent incorporation of P^33 into the peptide was quantified by Scintillation Proximity Assay (SPA—Amersham Pharmacia).
For IC50 determination, test compounds were typically dissolved at 10 mM in 100% DMSO, with subsequent serial dilution in 100% DMSO. Compounds were typically assayed over an eleven point dilution range with a concentration in the assay of 50 uM to 0.8 nM, in 3-fold dilutions. IC50 values were calculated by bespoke curve fitting software and then converted to pIC50. In some cases, compounds were assayed over an eleven point dilution range with a concentration in the assay of 10 uM to 0.8 nM, in 3-fold dilutions. […]
Assays were performed in opaque, white walled, 384 well plates, in a total assay volume of 20 ul. […] P^33 incorporation was quantified by scintillation counting in a Packard TopCount. When the reaction was terminated by addition of a 10 ul solution, P33 incorporation was quantified by luminescence detection using a Perkin-Elmer Viewlux ultraHTS microplate imager.

T1 sequence (Q13464 2-543): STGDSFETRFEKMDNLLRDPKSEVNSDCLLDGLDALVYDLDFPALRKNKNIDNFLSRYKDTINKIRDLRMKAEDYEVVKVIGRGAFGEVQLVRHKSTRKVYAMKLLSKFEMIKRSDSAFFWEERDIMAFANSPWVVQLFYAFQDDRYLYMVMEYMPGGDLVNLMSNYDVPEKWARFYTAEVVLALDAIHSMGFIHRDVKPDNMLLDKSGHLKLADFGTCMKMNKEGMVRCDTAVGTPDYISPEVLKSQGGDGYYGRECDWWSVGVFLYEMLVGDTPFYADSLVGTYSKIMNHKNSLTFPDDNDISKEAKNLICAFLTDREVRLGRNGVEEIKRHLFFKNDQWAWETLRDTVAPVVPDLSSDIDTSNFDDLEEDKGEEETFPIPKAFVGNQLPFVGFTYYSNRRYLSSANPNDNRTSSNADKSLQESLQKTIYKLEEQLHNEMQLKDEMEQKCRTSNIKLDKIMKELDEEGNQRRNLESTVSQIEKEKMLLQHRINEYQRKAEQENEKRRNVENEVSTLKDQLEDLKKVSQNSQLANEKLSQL

CC1=C(C(=O)Nc2cc3cn[nH]c3cc2F)C(c2ccc(Cl)cc2F)N=C(c2ccnc(Cl)c2)N1C (stereo not shown) [Example 98, 4-(4-chloro-2-fluorophenyl)-2-(2-chloro-4-pyridinyl)-N-(6-fluoro-1H-indazol-5-yl)-1,6-dimethyl-1,4-dihydro-5-pyrimidinecarboxamide]
activity in the ROCK kinase assay: not active
